What all share (assay type): cell-based, Saccharomyces cerevisiae W303
The subject of experiment [1] is promoter of yeast gene YCR102c. From the text:
(§1) The inventors of the present application understood that the induction of certain yeast genes by toxic substances is caused by the activation of the promoters of the genes by the toxic substances. Thus, the inventors prepared a vector that comprised a polynucleotide sequence comprising the promoter of the yeast gene, which sequence is operably linked to a polynucleotide encoding a marker protein; and transformed yeast cells with the vector. […] The working examples hereinafter illustrate the preparation of such vectors, transformation of yeast cells by use of said vectors, and the detection of toxic substances by use of the transformed cells.
(§2) Promoter assay is a method for determining variations of the level of intracellular genes without destroying cells on the basis of the level of expressed marker genes instead of the expressed mRNA. The gene selected to detect a chemical substance is expressed in the absence of chemical substances, and thus a marker protein also occurs in the absence of chemical substances. In the method according to the present invention, the behavior of yeast genes on the addition of test materials is determined on the basis of the level of expressed marker protein so that the presence or the absence, and the kind of toxic chemical substances are predicted. Thus, it is desired that the production of marker proteins is lower in the absence of chemical substances, and the production of marker proteins is higher in the presence of chemical substances.
(§3) Type YEp shuttle vector pYES2 (pYES2, Cat no: V825-20, Invirtogen Corporation, USA), which can be replicated both in E. coli. and yeast was used as vector (R. W. Old, S. B. Primrose Principles of Gene Manipulation 5th Ed., BAIFUKAN CO., LTD, pp138-165, pp.234-263, 2000). The portion of vector PQBI 63 (Cat no.54-0082, Wako Pure Chemical Industries, Ltd.) corresponding to a marker protein GFP was used as the polynucleotide encoding GFP (SEQ ID No: 6). First, the GFP polynucleotide was inserted into the multiple cloning sites of pYES2 to give a vector. Thereafter, the GALL promoter of pYES2 was replaced with the polynucleotide comprising the promoter sequence of the intended yeast gene YCR102c (SEQ ID No: 2) to give an intended plasmid vector. Suitable restriction enzymes were selected, and the insertion of the polynucleotide comprising GFP and the promoter sequence was conducted.
(§4) Next, the yeast Saccharomyces cerevisiae W303 was transformed with the resultant plasmid vector according to the following procedures: • 1) Incubating the yeast Saccharomyces cerevisiae W303 in 200 ml of SD medium under shaking until OD 660 reaches 0.5; • 2) Suspending the collected cells in 5 ml of TE-buffer; • 3) Adding 250 μL of 2.5M lithium acetate; • 4) Dispending each 300 μl, adding 10 μl of above plasmid vector thereto, then incubating the suspensions at 30° C. for 30 minutes; • 5) Adding 700 μl of 50% PEG4000, and incubating the mixture under shaking at 30° C. for 60 minutes; • 6) Giving heat shock (42° C., 5 minutes), and then immediately cooling the mixture; • 7) Washing the mixture twice with 1M sorbitol; and • 8) Seeding it on agar plates made of minimum essential medium.
The cells of SC-YCR102C-pQBI as prepared in Example 3 were contacted to one of the following compounds. The yeast cells SC-YCR102C-pQBI were incubated at 25° C. in SD medium (Yeast nitrogen base without amino acids (Difco 0919-15)+glucose+amino acids (adenine, histidine, tryptophan)). One of toxic chemical substances as shown below was added to the cells at logarithmic growth phase, and then the cells were further incubated for two hours.

Experiment [2] has as its system promoter of yeast gene YOR382w.
Description: as §1, §2
as §3, with “pQBI” for “PQBI”, “GAL1” for “GALL”, “YOR382w” for “YCR102c”, “3)” for “2)”
as §4
The cells of SC-YOR382W-pQBI as prepared in Example 4 were contacted to one of the following compounds. The yeast cells SC-YOR382W-pQBI were incubated at 25° C. in SD medium (Yeast nitrogen base without amino acids (Difco 0919-15)+glucose+amino acids (adenine, histidine, tryptophan)). One of toxic chemical substances as shown below was added to the cells at logarithmic growth phase, and then the cells were further incubated for two hours.

Experiment [3] has as its system promoter of yeast gene YLL057c.
Description: as §1, §2
as §3, with “YLL057c” for “YCR102c”, “4)” for “2)”
as §4
The cells of SC-YLL057C-pQBI as prepared in Example 5 were contacted to one of the following compounds. The yeast cells SC-YLL057C-pQBI were incubated at 25° C. in SD medium (Yeast nitrogen base without amino acids (Difco 0919-15)+glucose+amino acids (adenine, histidine, tryptophan)). One of toxic chemical substances as shown below was added to the cells at logarithmic growth phase, and then the cells were further incubated for two hours.

Where [4] appears, read: cells SC-YCR102C-pQBI, 2 hours incubation with the substance at the concentration printed in its row (column Concentrations), GFP fluorescence vs control without chemical.
[5] abbreviates: SC-YOR382W-pQBI cells, summary of Table 12.
Setting [6] is: cells SC-YOR382W-pQBI, 2 hours incubation with the substance at the concentration printed in its row (column Concentrations), GFP fluorescence vs control without chemical.
Setting [7] is: cells SC-YLL057C-pQBI, 2 hours incubation with the substance at the concentration printed in its row (column Concentrations), GFP fluorescence vs control without chemical.

Like-named read-outs stand apart in the source and are kept apart here.

With `[Cl][Ni][Cl]` [nickel (II) chloride], the Fluorescence entry in experiment [1] is “− (key: −: the number of the cells having a higher fluorescence than the control was under 1%; +: between 1% and 2%; ++: 2% or more)”; in experiment [2] it was “++ (key: −: the number of the cells having a higher fluorescence than the control was under 1%; +: between 1% and 2%; ++: 2% or more)”; in experiment [3] it was “− (key: −: the number of the cells having a higher fluorescence than the control was under 1%; +: between 1% and 2%; ++: 2% or more)”. Besides, the “expression of GFP” value in experiment [2] is recorded as “induced the expression of GFP”.
As for `[K+].[K+].[O]=[Cr](=[O])([O-])[O][Cr](=[O])(=[O])[O-]` [potassium bichromate], the Fluorescence result in experiment [1] (setting [4]) is recorded as “− (the number of the cells having a higher fluorescence than the control was under 1%)”; in experiment [2] (setting [6]), “++ (2% or more)”; in experiment [3] (setting [7]), “− (the number of the cells having a higher fluorescence than the control was under 1%)”. In experiment [2] (setting [5]), the “expression of GFP” value is “induced the expression of GFP”.
As for Na2As [(1)], the Fluorescence entry is on record as “− (the number of the cells having a higher fluorescence than the control was under 1%)” in experiment [1] (setting [4]), “− (the number of the cells having a higher fluorescence than the control was under 1%)” in experiment [2] (setting [6]) and “++ (2% or more)” in experiment [3] (setting [7]). The “expression of GFP” value in experiment [3] (SC-YLL057C-pQBI cells, summary of Table 13) is listed as “induced the expression of GFP”.
For `[Cl][Sn]([c]1ccccc1)([c]1ccccc1)[c]1ccccc1` [triphenyltin chloride], the Fluorescence entry in experiment [1] (setting [4]), in experiment [2] (setting [6]) and in experiment [3] (setting [7]) was “− (the number of the cells having a higher fluorescence than the control was under 1%)” throughout.
Regarding `[CH3][Hg][Cl]` [methylmercury chloride], the Fluorescence result in experiment [1] (setting [4]), in experiment [2] (setting [6]) and in experiment [3] (setting [7]) was “− (the number of the cells having a higher fluorescence than the control was under 1%)” each time.
`CCOC(=O)CC(SP(=S)(OC)OC)C(=O)OCC` (stereo not shown) [malathon]: the figures for the Fluorescence result in experiment [1] (setting [4]), in experiment [2] (setting [6]) and in experiment [3] (setting [7]) were “− (the number of the cells having a higher fluorescence than the control was under 1%)”, “++ (2% or more)” and “− (the number of the cells having a higher fluorescence than the control was under 1%)”, respectively. For the same compound, in experiment [2] (setting [5]), the “expression of GFP” value was “induced the expression of GFP”.
As to `CCCCC(CC)COC(=O)c1ccccc1C(=O)OCC(CC)CCCC` (stereo not shown), the Fluorescence result in experiment [1] (setting [4]), in experiment [2] (setting [6]) and in experiment [3] (setting [7]) was “− (the number of the cells having a higher fluorescence than the control was under 1%)” each time.

(Values after US20050112573A1, “Method of detecting toxic substance” (priority 2001, published 2005).)
